Experimental data: patent US8785457B2 (Cellzome Limited, priority 2009, dated 2014)
Where two headings read alike, the source gives them in different places.

Assays:
[1] = target: T1, mTOR (Homo sapiens, UniProt P42345); test: mTOR kinobeads assay (competitive binding in Jurkat cell lysate, immunodetection); settings: kinobeads assay
T1 construct: endogenous in cells; host or cells: Jurkat, clone E6-1 (ATCC TIB-152) cell lysate
In short: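 IC50 derived from dose-response curves of mTOR captured on immobilized phenylmorpholin-chromen beads, detected by antibody dot blot with infrared fluorescence.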

[2] = target: T2, PI3 Kgamma (PI3 Kg) (Homo sapiens, UniProt P48736); test: kinobeads assay, PI3Kgamma; assay type: binding; settings: kinobeads assay, Table 6; read-out: Inhibition values (IC50) PI3Kg
T2 construct: endogenous in cells; host or cells: cell lysate
T2 sequence (P48736 whole entry): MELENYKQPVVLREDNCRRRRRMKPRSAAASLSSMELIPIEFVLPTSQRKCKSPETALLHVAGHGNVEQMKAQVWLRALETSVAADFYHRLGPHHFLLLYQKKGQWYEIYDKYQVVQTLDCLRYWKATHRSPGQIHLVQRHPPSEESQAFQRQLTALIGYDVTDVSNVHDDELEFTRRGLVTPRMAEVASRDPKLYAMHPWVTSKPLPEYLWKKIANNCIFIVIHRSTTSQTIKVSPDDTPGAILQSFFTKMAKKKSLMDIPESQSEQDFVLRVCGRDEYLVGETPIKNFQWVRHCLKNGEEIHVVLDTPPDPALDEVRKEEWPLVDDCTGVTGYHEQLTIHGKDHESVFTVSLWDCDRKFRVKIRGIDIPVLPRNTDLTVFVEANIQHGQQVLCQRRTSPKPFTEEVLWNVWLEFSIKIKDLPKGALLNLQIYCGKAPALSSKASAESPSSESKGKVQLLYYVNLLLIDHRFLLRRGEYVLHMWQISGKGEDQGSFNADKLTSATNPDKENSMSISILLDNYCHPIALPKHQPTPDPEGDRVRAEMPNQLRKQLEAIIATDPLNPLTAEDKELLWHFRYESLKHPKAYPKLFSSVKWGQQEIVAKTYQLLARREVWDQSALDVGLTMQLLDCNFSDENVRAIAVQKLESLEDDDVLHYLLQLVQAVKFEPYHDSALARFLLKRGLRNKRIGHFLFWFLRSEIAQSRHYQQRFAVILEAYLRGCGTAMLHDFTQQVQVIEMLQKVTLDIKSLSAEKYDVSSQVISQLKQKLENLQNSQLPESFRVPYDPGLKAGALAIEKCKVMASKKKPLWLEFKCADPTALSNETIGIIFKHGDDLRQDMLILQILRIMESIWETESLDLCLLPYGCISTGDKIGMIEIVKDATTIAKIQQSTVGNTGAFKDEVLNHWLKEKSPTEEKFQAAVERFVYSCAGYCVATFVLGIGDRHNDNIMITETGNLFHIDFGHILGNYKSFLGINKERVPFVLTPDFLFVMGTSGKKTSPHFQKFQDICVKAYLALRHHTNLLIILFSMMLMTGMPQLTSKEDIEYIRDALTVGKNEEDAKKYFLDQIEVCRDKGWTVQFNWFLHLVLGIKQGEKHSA
In short: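 Competitive pull-down in cell lysate: compound (various conc.) + phenylmorpholin-chromen affinity beads, incubate, separate beads, elute. Multiplexed immunodetection of bound kinases; dose-response fit → IC50.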

[3] = test system: Akt serine-473 phosphorylation; test: In vitro Phospho-Akt cellular assay (pAkt S473) in HEK293T/17 cells; assay type: cell-based; settings: Homo sapiens, 2 hours
Source text: Activation of mTOR signaling results in phosphorylation of several downstream targets. In cells, mTOR exists in two different protein complexes. The mTOR Complex-1 (mTORC1) phosphorylates and activates S6 Kinase 1 (S6K1) and S6 Kinase 2 (S6K2) (also known as p70S6K) which then phosphorylate S6 Ribosomal Protein (S6RP) (also known as RPS6)3. S6RP is phosphorylated on serine 235, serine 236, serine 240 and serine 244 by both pS6K1 and pS6K2. The mTOR Complex-2 (mTORC2) phosphorylates AKT on serine 473 which activates the AKT signaling pathway.
The assay measures a test compound's inhibition of S6RP serine-240/244 phosphorylation and inhibition of Akt serine-473 phosphorylation in human embryonic kidney derived HEK293T/17 cells (ATCC CRL-11268).
The HEK293T/17 cell line is maintained in DMEM media (Invitrogen catalogue number 41965-039) supplemented with 10% FCS at 37° C. in a 5% CO2 humidified incubator.
Cells are seeded in 96-well plates at 40,000 cells/well (pS6RP S240/244 assay) or 80,000 cells/well (pAkt S473 assay) in 90 μl growth media (DMEM, 2% FCS). Plates are incubated for 1 hour in a humidified incubator to allow the cells to adhere. Cells are treated with 8 concentrations of test compounds or DMSO alone for controls (final DMSO concentration 0.1%) and incubated at 37° C. for 2 hours. Then 20 μl of 5× concentrated lysis buffer (750 mM NaCl, 100 mM Tris pH7.4, 5 mM ADTA, 5 mM EGTA, 5% Triton X-100) is added, plates are sealed and incubated for 15 minutes at 4° C. with gentle shaking. After cell lysis, 25 μl cell lysate is transferred to a MesoScale plate coated with an antibody to pS6RP Ser240/244 (MesoScale Discovery K150DGD-3) or an antibody to pAkt Ser 473 (MesoScale Discovery K151DGD-3). Plates have been blocked before by incubation with 150 μl MesoScale Discovery Blocking Solution-A for 1 hour at room temperature followed by washing with 150 μl 1× Tris wash buffer per well. After the transfer of the cell lysate to the MSD plate, the pS6RP (or pAkt) protein is captured on the coated antibody by incubation at room temperature for 1 hour with gentle shaking. After the capture step the plate is washed three times with 150 μl of 1× Tris wash buffer per well. Then 25 μl detection antibody conjugated with a Sulfo-Tag is added and incubated for 1 hour at room temperature with gentle shaking. Subsequently the antibody solution is removed and the plate is washed 3 times with 150 μl×Tris wash buffer per well and 150 μl Read buffer is added. The plates are analysed on a MSD 2400 Plate Reader (MesoScale Discovery). Data analysis is performed using nonlinear regression for a sigmoidal dose-response with a variable slope.

[4] = Table 6, read-out: Inhibition values (IC50) mTOR
[5] = Table 4, read-out: Inhibition values (IC50) mTor

Row | Structure (SMILES) | IC50 [1, 4] [nM] | IC50 [2] [nM] | IC50 [3] [nM] | IC50 [1, 5] [nM]
1 | CCNC(=O)Nc1ccc(-c2nc3c(c(N4CCOC[C@@H]4C)n2)CN(C(=O)OCC)C3)cc1F [Example 103, (S)-ethyl-2-(4-(3-ethylureido)-3-fluorophenyl)-4-(3-methylmorpholino)-5H-pyrrolo[3,4-d]pyrimidine-6(7H)-carboxylate] | 100 to 1000 | > 10000 | 88 | 
2 | CC(C)C(=O)N1CCc2c(nc(-c3ccc(NC(=O)NC4CC4)cc3)nc2N2CCOC[C@@H]2C)C1 [Example 61, (S)-1-cyclopropyl-3-(4-(7-isobutyryl-4-(3-methylmorpholino)-5,6,7,8-tetrahydropyrido[3,4-d]pyrimidin-2-yl)phenyl)urea] | < 100 | > 10000 | 20 | < 100
3 | CCOC(=O)N1CCc2c(nc(-c3ccc(NC(=O)NC4CC4)cc3)nc2N2CCOC[C@@H]2C)C1 [Example 78, (S)-ethyl 2-(4-(3-cyclopropylureido)phenyl)-4-(3-methylmorpholino)-5,6-dihydropyrido[3,4-d]pyrimidine-7(8H)-carboxylate] | < 100 | > 10000 | 21 | 
4 | CCNC(=O)Nc1ccc(-c2nc3c(c(N4CCOC[C@@H]4C)n2)CCN(C(=O)Cc2cccnc2)C3)cc1 [Example 91, (S)-1-ethyl-3-(4-(4-(3-methylmorpholino)-7-(2-(pyridin-3-yl)acetyl)-5,6,7,8-tetrahydropyrido[3,4-d]pyrimidin-2-yl)phenyl)urea] | < 100 | > 10000 | 87 | 
5 | CCNC(=O)Nc1ccc(-c2nc3c(c(N4CCOC[C@@H]4C)n2)CCN(C(=O)C(C)(C)C)C3)cc1 [Example 58, (S)-1-ethyl-3-(4-(4-(3-methylmorpholino)-7-pivaloyl-5,6,7,8-tetrahydropyrido[3,4-d]pyrimidin-2-yl)phenyl)urea] | < 100 | > 10000 | 17 | < 100
6 | CCNC(=O)Nc1ccc(-c2nc3c(c(N4CCOC[C@@H]4C)n2)CN(CC(C)C)C3)cc1 [Example 66, (S)-1-ethyl-3-(4-(6-isobutyl-4-(3-methylmorpholino)-6,7-dihydro-5H-pyrrolo[3,4-d]pyrimidin-2-yl)phenyl)urea] | < 100 | > 10000 | 54 | 
7 | COC(=O)N1Cc2nc(-c3ccc(NC(=O)NC4CC4)cc3)nc(N3CCOC[C@@H]3C)c2C1 [Example 86, (S)-methyl 2-(4-(3-cyclopropylureido)phenyl)-4-(3-methylmorpholino)-5H-pyrrolo[3,4-d]pyrimidine-6(7H)-carboxylate] | < 100 | > 10000 | 43 | 
8 | CCNC(=O)Nc1ccc(-c2nc3c(c(N4CCOC[C@@H]4C)n2)CCN(C(=O)OC)C3)cc1 [Example 81, (S)-methyl 2-(4-(3-ethylureido)phenyl)-4-(3-methylmorpholino)-5,6-dihydropyrido[3,4-d]pyrimidine-7(8H)-carboxylate] | < 100 | > 10000 | 22 | 
9 | CCNC(=O)Nc1ccc(-c2nc3c(c(N4CCOC[C@@H]4C)n2)CN(C(=O)OCC)C3)cc1 [Example 90, (S)-ethyl 2-(4-(3-ethylureido)phenyl)-4-(3-methylmorpholino)-5H-pyrrolo[3,4-d]pyrimidine-6(7H)-carboxylate] | < 100 | > 10000 | 37 | 
10 | CCNC(=O)Nc1ccc(-c2nc3c(c(N4CCOC[C@@H]4C)n2)CN(C(=O)OCC)C3)c(F)c1 [Example 113, (S)-ethyl-2-(4-(3-ethylureido)-2-fluorophenyl)-4-(3-methylmorpholino)-5H-pyrrolo[3,4-d]pyrimidine-6(7H)-carboxylate] | 100 to 1000 | > 10000 | 53 | 
11 | CCNC(=O)N1CCc2c(nc(-c3ccc(NC(=O)NC4CC4)cc3)nc2N2CCOC[C@@H]2C)C1 [Example 88, (S)-2-(4-(3-cyclopropylureido)phenyl)-N-ethyl-4-(3-methylmorpholino)-5,6-dihydropyrido[3,4-d]pyrimidine-7(8H)-carboxamide] | < 100 | > 10000 | 57 | 
12 | C[C@H]1COCCN1c1nc(-c2ccc(NC(=O)NC3CC3)cc2)nc2c1CCN(C(=O)C1CC1)C2 [Example 60, (S)-1-(4-(7-(cyclopropanecarbonyl)-4-(3-methylmorpholino)-5,6,7,8-tetrahydropyrido[3,4-d]pyrimidin-2-yl)phenyl)-3-cyclopropylurea] | < 100 | > 10000 | 21 | < 100
13 | CCOC(=O)N1Cc2nc(-c3ccc(NC(=O)NC4CC4)cc3F)nc(N3CCOC[C@@H]3C)c2C1 [Example 131, (S)-ethyl 2-(4-(3-cyclopropylureido)-2-fluorophenyl)-4-(3-methylmorpholino)-5H-pyrrolo[3,4-d]pyrimidine-6(7H)-carboxylate] | 100 to 1000 | > 10000 | 49 | 
14 | C[C@H]1COCCN1c1nc(-c2ccc(NC(=O)Nc3cccc(O)n3)cc2)nc2c1CN(C)C2 [Example 80, (S)-1-(6-hydroxypyridin-2-yl)-3-(4-(6-methyl-4-(3-methylmorpholino)-6,7-dihydro-5H-pyrrolo[3,4-d]pyrimidin-2-yl)phenyl)urea] | < 100 | 1000 to 10000 | 61 | 
15 | CCNC(=O)Nc1ccc(-c2nc3c(c(N4CCOC[C@@H]4C)n2)CCN(C(=O)NCC)C3)cc1 [Example 87, (S)—N-ethyl-2-(4-(3-ethylureido)phenyl)-4-(3-methylmorpholino)-5,6-dihydropyrido[3,4-d]pyrimidine-7(8H)-carboxamide] | < 100 | > 10000 | 91 | 
16 | CCNC(=O)Nc1ccc(-c2nc3c(c(N4CCOC[C@@H]4C)n2)CN(C(=O)OC)C3)cc1 [Example 89, (S)-methyl 2-(4-(3-ethylureido)phenyl)-4-(3-methylmorpholino)-5H-pyrrolo[3,4-d]pyrimidine-6(7H)-carboxylate] | < 100 | > 10000 | 42 | 
17 | CCNC(=O)Nc1ccc(-c2nc3c(c(N4CCOC[C@@H]4C)n2)CN(C)C3)cc1F [Example 85, (S)-1-ethyl-3-(2-fluoro-4-(6-methyl-4-(3-methylmorpholino)-6,7-dihydro-5H-pyrrolo[3,4-d]pyrimidin-2-yl)phenyl)urea] | 100 to 1000 | > 10000 | 531 | 
18 | COC(=O)N1CCc2c(nc(-c3ccc(NC(=O)NC4CC4)cc3)nc2N2CCOC[C@@H]2C)C1 [Example 83, (S)-methyl 2-(4-(3-cyclopropylureido)phenyl)-4-(3-methylmorpholino)-5,6-dihydropyrido[3,4-d]pyrimidine-7(8H)-carboxylate] | < 100 | > 10000 | 70 | 
19 | CCOC(=O)N1Cc2nc(-c3ccc(NC(=O)NC4CC4)c(F)c3)nc(N3CCOC[C@@H]3C)c2C1 [Example 105, (S)-ethyl 2-(4-(3-cyclopropylureido)-3-fluorophenyl)-4-(3-methylmorpholino)-5H-pyrrolo[3,4-d]pyrimidine-6(7H)-carboxylate] | 100 to 1000 | > 10000 |  | 
20 | CCNC(=O)Nc1ccc(-c2nc3c(c(N4CCOC[C@@H]4C)n2)CCN(C(=O)OCC)C3)cc1 [Example 77, (S)-ethyl 2-(4-(3-ethylureido)phenyl)-4-(3-methylmorpholino)-5,6-dihydropyrido[3,4-d]pyrimidine-7(8H)-carboxylate] | < 100 | > 10000 | 28 | 
21 | CCNC(=O)Nc1ccc(-c2nc3c(c(N4CCOCC4)n2)CN(C)C3)cc1 [Example 69, 1-Ethyl-3-(4-(6-methyl-4-morpholino-6,7-dihydro-5H-pyrrolo[3,4-d]pyrimidin-2-yl)phenyl)urea] | < 100 | > 10000 |  | 
